Series [1] relates to Staphylococcus aureus. As to the kind of experiment: Antibacterial activity against Staphylococcus aureus ATCC 6538 assessed as inhibition of bacterial growth incubated for 16 to 24 hrs by broth microdilution method. The format is functional. Particulars: time 16-24 hrs. In general terms: In broth dilution the organism is exposed to a series of concentrations in liquid medium.

The test system of series [2] is Enterococcus faecalis. Put plainly: Antibacterial activity against vancomycin-resistant Enterococcus faecalis ATCC 51299 assessed as inhibition of bacterial growth incubated for 16 to 24 hrs by broth microdilution method. The format is functional. Conditions: time 16-24 hrs.
Series [3] relates to Staphylococcus aureus. As to the kind of experiment: Antibacterial activity against methicillin-sensitive Staphylococcus aureus ATCC 25923 assessed as inhibition of bacterial growth incubated for 16 to 24 hrs by broth microdilution method. The format is functional. Conditions: time 16-24 hrs.
Series [4] can be described thus: Toxicity in Saccharomyces cerevisiae ATCC 2601 assessed as reduction in cell viability measured after 24 hrs by microdilution method. Particulars: Saccharomyces cerevisiae, Saccharomyces cerevisiae ATCC 2601 cells.
For series [5], the system named is Enterococcus faecalis. As to the kind of experiment: Antibacterial activity against Enterococcus faecalis ATCC 29212 assessed as inhibition of bacterial growth incubated for 16 to 24 hrs by broth microdilution method. The format is functional. Particulars: time 16-24 hrs.
The nature of series [6]: Cytotoxicity against human HaCaT cells assessed as cell viability at 28 uM after 24 hrs by MTT assay. The series is classed as cell-based. Conditions: read-out: Activity. A general note: Tetrazolium assays rely on reduction of a dye to a coloured formazan, in cell work by metabolically active cells.
The subject of series [7] is Staphylococcus aureus. As to the kind of experiment: Antibacterial activity against methicillin-resistant Staphylococcus aureus CIP106760 assessed as inhibition of bacterial growth incubated for 16 to 24 hrs by broth microdilution method. The format is functional. Conditions: time 16-24 hrs.
Series [8] can be described thus: Antioxidant activity assessed as DPPH radical scavenging activity at 10 ug/ml by DPPH assay relative to control. The format is functional. Conditions: dose 10.0 µg/ml. Background: DPPH is a stable violet radical that fades when it is reduced.
Another series has as its system Bacillus subtilis. As to the kind of experiment: Antibacterial activity against Bacillus subtilis ATCC 6633 assessed as inhibition of bacterial growth incubated for 16 to 24 hrs by broth microdilution method. The series is classed as functional. Particulars: time 16-24 hrs.
For series [9], the system named is Staphylococcus epidermidis. Put plainly: Antibacterial activity against Staphylococcus epidermidis ATCC 12228 assessed as inhibition of bacterial growth incubated for 16 to 24 hrs by broth microdilution method. Particulars: time 16-24 hrs. The format is functional.
For a further series, the system named is MRC5. Put plainly: Cytotoxicity against human MRC5 cells assessed as reduction in cell viability measured after 24 hrs by MTT assay. The series is classed as cell-based. Particulars: MRC5, 24 h.
In series [10] the test system is HaCaT. As to the kind of experiment: Cytotoxicity against human HaCaT cells assessed as reduction in cell viability at 50 uM after 24 hrs by MTT assay. The format is cell-based.
In series [11] the test system is Staphylococcus aureus. As to the kind of experiment: Antibacterial activity against Staphylococcus aureus assessed as inhibition of bacterial growth incubated for 16 to 24 hrs by broth microdilution method. The format is functional. Particulars: time 16-24 hrs.
Series [12] in a line: (§1) Cytotoxicity against human HaCaT cells assessed as cell viability at 50 uM after 24 hrs by MTT assay. Particulars: HaCaT cells, read-out: Activity. The format is cell-based.
For series [13], the system named is Enterococcus faecalis. Put plainly: Antibacterial activity against Enterococcus faecalis assessed as inhibition of bacterial growth incubated for 16 to 24 hrs by broth microdilution method. The series is classed as functional. Conditions: time 16-24 hrs.
A further series concerns Enterococcus faecium. As to the kind of experiment: Antibacterial activity against Enterococcus faecium assessed as inhibition of bacterial growth incubated for 16 to 24 hrs by broth microdilution method. The series is classed as functional. Particulars: time 16-24 hrs.
For series [14], the system named is Staphylococcus epidermidis. Put plainly: Antibacterial activity against Staphylococcus epidermidis assessed as inhibition of bacterial growth incubated for 16 to 24 hrs by broth microdilution method. Conditions: time 16-24 hrs. The format is functional.
For another series, the system named is Listeria monocytogenes. As to the kind of experiment: Antibacterial activity against Listeria monocytogenes assessed as inhibition of bacterial growth incubated for 16 to 24 hrs by broth microdilution method. The format is functional. Conditions: time 16-24 hrs.
A short description of series [15]: Toxicity in Artemia salina assessed as mortality at 10 ug/ml measured after 24 hrs. Particulars: at 10 µg/mL.
Series [16] concerns HaCaT. The description is as §1. The series is classed as cell-based. Conditions: hacat, 24 h, 50 µM.

≈ marks a conversion by molar mass, not a printed value.

The term MBC denotes the lowest tested concentration that kills the bacteria rather than only halting them. Usually MIC stands for the smallest concentration in the dilution series that meets the test's criterion for growth inhibition. Broadly, the IC50 is the concentration that gives 50% inhibition. As usually defined, the mortality is the percentage killed.

With `Cc1ccc(C(c2cc([N+](=O)[O-])ccc2O)N2CCc3ccccc32)cc1` (centres undefined), the MBC worked out at 43.4 µM (≈ 15.6 µg/mL) in the series with Staphylococcus aureus [1]; 173 µM (≈ 62.4 µg/mL) in the series on Enterococcus faecalis [2]; 347 µM (≈ 125 µg/mL) in the series with Staphylococcus aureus [3]; 86.7 µM (≈ 31.2 µg/mL) in the series on Enterococcus faecalis [5]; 5.42 µM (≈ 1.95 µg/mL) with Staphylococcus aureus [7]. Moreover, the MIC in the series on Staphylococcus aureus [1] came out at 10.8 µM (≈ 3.89 µg/mL); in the series with Enterococcus faecalis [2], 21.7 µM (≈ 7.82 µg/mL); in the series with Staphylococcus aureus [3] it was 21.3 µM (≈ 7.68 µg/mL); in the series with Enterococcus faecalis [5], 10.8 µM (≈ 3.89 µg/mL); with Staphylococcus aureus [7], 2.71 µM (≈ 0.977 µg/mL). Moreover, the IC50 at 24 h in series [4] is > 100 µM. The viability at 24 h, 28 µM in series [6] worked out at 20%. Also, in series [8], the Activity is > 80%.

With `O=[N+]([O-])c1ccc2c(c1)CCN2C(c1ccc(C(F)(F)F)cc1)c1cc([N+](=O)[O-])ccc1O` (centres undefined), the minimal bactericidal concentration (MBC) in the series with Enterococcus faecalis [2] is 142 µM (≈ 65.2 µg/mL); with Staphylococcus aureus [3], 35.6 µM (≈ 16.4 µg/mL); with Enterococcus faecalis [5], 8.89 µM (≈ 4.08 µg/mL); with Bacillus subtilis, 18.9 µM (≈ 8.68 µg/mL); in [9], 2.36 µM (≈ 1.08 µg/mL); in the series on Staphylococcus aureus [7] it was 1.11 µM (≈ 0.51 µg/mL). The minimal inhibitory concentration (MIC) in the series with Enterococcus faecalis [2] was 4.45 µM (≈ 2.04 µg/mL); in the series on Staphylococcus aureus [3], 2.22 µM (≈ 1.02 µg/mL); in the series on Enterococcus faecalis [5], 1.11 µM (≈ 0.51 µg/mL); in the series with Bacillus subtilis, 9.43 µM (≈ 4.33 µg/mL); in series [9], < 1.18 µM; in the series with Staphylococcus aureus [7] it was 1.11 µM (≈ 0.51 µg/mL). For the same molecule, the concentration for half-maximal inhibition (IC50) at 24 h in series [4] is 292 µM. In the series on MRC5, the 50% inhibitory concentration (IC50) came to 5.8 µM. Further, the Activity result in the series with HaCaT [10] is given as “Toxic”.

Take `Cc1ccc(C(c2cc([N+](=O)[O-])ccc2O)N2CCc3cc([N+](=O)[O-])ccc32)cc1` (centres undefined): the MIC in the series on Staphylococcus aureus [11] turned out to be 9.64 µM (≈ 3.91 µg/mL); with Staphylococcus aureus [1] it was 19.3 µM (≈ 7.82 µg/mL); in the series on Enterococcus faecalis [2], 2.41 µM (≈ 0.977 µg/mL); in the series on Staphylococcus aureus [3], 1.2 µM (≈ 0.486 µg/mL); with Enterococcus faecalis [5] it was 1.2 µM (≈ 0.486 µg/mL); with Enterococcus faecalis [13] it was 19.3 µM (≈ 7.81 µg/mL). The MIC in the series with Enterococcus faecium was found to be 9.64 µM (≈ 3.91 µg/mL); with Bacillus subtilis, 18.9 µM (≈ 7.66 µg/mL); in [9], 18.9 µM (≈ 7.66 µg/mL); in series [14], 9.64 µM (≈ 3.91 µg/mL); in the series on Listeria monocytogenes it was 9.64 µM (≈ 3.91 µg/mL); in the series with Staphylococcus aureus [7], 1.2 µM (≈ 0.486 µg/mL). Besides, the minimal bactericidal concentration (MBC) with Staphylococcus aureus [1] was 77.1 µM (≈ 31.3 µg/mL); with Enterococcus faecalis [2], 154 µM (≈ 62.4 µg/mL); in the series on Staphylococcus aureus [3], 38.6 µM (≈ 15.6 µg/mL); with Enterococcus faecalis [5], 9.64 µM (≈ 3.91 µg/mL); in the series on Bacillus subtilis it was 37.7 µM (≈ 15.3 µg/mL); in series [9] it was 37.7 µM (≈ 15.3 µg/mL). Besides, the minimal bactericidal concentration (MBC) in the series on Staphylococcus aureus [7] was 4.82 µM (≈ 1.95 µg/mL). Moreover, in [4], the IC50 at 24 h is > 100 µM. In [12], the viability at 24 h, 50 µM stood at 94%. The Activity in [8] stood at 8%.

Take `O=[N+]([O-])c1ccc(O)c(C(c2ccc(C(F)(F)F)cc2)N2CCc3ccccc32)c1` (centres undefined): the MIC with Staphylococcus aureus [11] came out at 1.18 µM (≈ 0.489 µg/mL); in the series with Staphylococcus aureus [1], 1.18 µM (≈ 0.489 µg/mL); with Enterococcus faecalis [2] it was 1.18 µM (≈ 0.489 µg/mL); in the series on Staphylococcus aureus [3] it was 1.18 µM (≈ 0.489 µg/mL); in the series with Enterococcus faecalis [5], 1.18 µM (≈ 0.489 µg/mL); in the series on Enterococcus faecalis [13], 2.36 µM (≈ 0.978 µg/mL). Moreover, the MIC in the series on Enterococcus faecium was 2.36 µM (≈ 0.978 µg/mL); in the series on Bacillus subtilis, < 1.18 µM; in series [9], < 1.18 µM; in series [14], 1.18 µM (≈ 0.489 µg/mL); with Listeria monocytogenes, 1.18 µM (≈ 0.489 µg/mL); in the series on Staphylococcus aureus [7], 1.18 µM (≈ 0.489 µg/mL). Besides, the minimal bactericidal concentration (MBC) in the series on Staphylococcus aureus [1] is 2.36 µM (≈ 0.978 µg/mL); in the series with Enterococcus faecalis [2], 151 µM (≈ 62.6 µg/mL); in the series on Staphylococcus aureus [3], 37.7 µM (≈ 15.6 µg/mL); in the series with Enterococcus faecalis [5], 9.43 µM (≈ 3.91 µg/mL); in the series on Bacillus subtilis it was < 1.18 µM; in series [9], < 1.18 µM. Besides, in the series on Staphylococcus aureus [7], the MBC amounted to 1.18 µM (≈ 0.489 µg/mL). The 50% inhibitory concentration (IC50) at 24 h in [4] was > 100 µM. The mortality at 24 h, 10 ug/ml in series [15] is 8%. Also, the Activity entry in the series on HaCaT [16] and with HaCaT [10] was “Non-Toxic” throughout. In the series on MRC5, the IC50 came out at 1.7 µM.

These data come from ChEMBL document CHEMBL4837201, “Increased antibacterial properties of indoline-derived phenolic Mannich bases” (Eur J Med Chem, 2021).
